Patent publication US5851782A, “Inhibitors of ceramidase” (Duke University, priority 1996, dated 1998)

Key:
[1] = tested on: HL-60 human myelocytic leukemia cells; assay: HL-60 cell proliferation (cell counting); assay type: cell-based; details: for effect on cell growth: HL-60 cells, 5 μM, time course
Method: Proliferation and cell cycle studies. HL-60 human myelocytic leukemia cells (obtained from the American Type Culture Collection) were grown in RPMI 1640 medium containing 10 fetal calf serum at 37° C. in 5% CO2 incubator. For proliferation and cell cycle studies, cells were resuspended at a density of 2×10^5 cells/ml in serum-free media containing insulin (5 mg/liter) and transferrin (5 mg/liter) and sodium selenite (5 μg/liter) for 2-4 h. Cells were then treated with the indicated compounds. Ethanol concentration was always maintained at less than 0.1%. Cell proliferation was determined by counting cells using a hemacytometer, cell viability was evaluated by trypan blue dye exclusion, and cell cycle analysis was determined by propidium iodide flow cytometry as described (Chao et al, J. Biol. Chem. 267:23459 (1992)).
In structure-function analysis of ceramide-mediated growth suppression using amides of phenylaminoalcohols, D- and L-erythro-MAPP were employed. In these studies, HL-60 cells were treated with 5 μM of either D-e-MAPP or L-e-MAPP, and growth was determined at the indicated time points (FIG. 2A).
Studies were conducted examining the uptake and metabolism of D- and L-MAPP. In the first set of studies, the effect of duration of exposure of HL-60 cells to D-e-MAPP on the bioactivity of the molecule was determined. D-e-MAPP added to cells could be washed off by repeated sedimentation and washing of cells. Thus, after five cycles of washing, less than 10% of D-MAPP remained associated with the cell pellet-compared to unwashed cells (FIG. 5A).

[2] = tested on: ceramide-activated protein phosphatase (CAPP); assay: CAPP serine/threonine phosphatase activity in vitro; assay type: biochemical; details: myelin basic protein phosphorylated by protein kinase A as substrate
HL-60 cells = assay: Cellular metabolism of tritium-labeled compounds (TLC); assay type: cell-based, human; details: HL-60, 5 μM, TLC
Method: (§1) Metabolism studies. Lipids from cells treated with ^3 H-labeled compounds were extracted (Bligh & Dyer method), dried, resuspended in chloroform/methnol (10:1, v/v), and subjected to separation by TLC in chloroform/methanol (4:1, v/v). Spots containing radioactive compounds were scraped and radioactivity was measured using a scintillation counter.
(§2) Next, the metabolism of D- and L-e-MAPP was evaluated. To this end, organic lipids were extracted from cells treated with 5 μM D- or L-e-MAPP at the indicated time points (FIG. 5D), and lipids were resolved on TLC. […] On the other hand, L-e-MAPP underwent significant metabolism in a time-dependent fashion such that by 24 h, more than 70% of the L-e-MAPP taken up by cells was metabolized (FIG. 5, D and E). Two major breakdown products of L-e-MAPP were resolved by TLC. One metabolite co-migrated with […] and not with other neutral or polar lipids. The other metabolite (upper spot in FIG. 5D) comigrated with triacylglycerol.

[3] = biological target: T1, Glucosylceramide synthase (Homo sapiens, UniProt Q16739); assay: Glucocerebroside (glucosylceramide) synthase assay in vitro; assay type: biochemical; details: 20 μM; for Glucosylceramide synthase activity: Control 1.009 ± 0.0424; for inhibition of cerebroside synthase activity: Table I
T1 sequence (Q16739 1-394): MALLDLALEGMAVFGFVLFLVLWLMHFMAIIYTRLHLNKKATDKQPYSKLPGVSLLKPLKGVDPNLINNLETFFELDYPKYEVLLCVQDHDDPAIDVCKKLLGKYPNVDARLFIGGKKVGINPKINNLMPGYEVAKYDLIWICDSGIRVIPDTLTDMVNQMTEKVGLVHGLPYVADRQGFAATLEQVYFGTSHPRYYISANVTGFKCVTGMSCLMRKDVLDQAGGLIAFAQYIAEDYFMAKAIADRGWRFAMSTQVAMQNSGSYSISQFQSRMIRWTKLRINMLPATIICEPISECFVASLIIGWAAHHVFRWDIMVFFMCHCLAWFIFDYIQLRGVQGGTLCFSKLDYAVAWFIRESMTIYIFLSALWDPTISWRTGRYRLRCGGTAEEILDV
Method: (§3) Glucocerebrosidase and glucocerebroside synthase assays. In vitro assays for gluccerebrosidase and for cerebroside synthase were performed as described (Abe et al, J. Biochem. (Tokyo) 11:191 (1992)).
(§4) In addition to ceramidase, inhibition of cerebroside synthase and sphingomyelin synthase or stimulation of sphingomyelinase or cerebrosidase could result in elevations in endogenous ceramide levels. Therefore, the effects of D- and L-e-MAPP were examined on these enzyme activities in vitro and in cells.

β-glucosidase = biological target: T2, β-glucosidase (Homo sapiens, UniProt P04062); assay: Glucocerebrosidase assay in vitro; assay type: biochemical
T2 sequence (P04062 40-536): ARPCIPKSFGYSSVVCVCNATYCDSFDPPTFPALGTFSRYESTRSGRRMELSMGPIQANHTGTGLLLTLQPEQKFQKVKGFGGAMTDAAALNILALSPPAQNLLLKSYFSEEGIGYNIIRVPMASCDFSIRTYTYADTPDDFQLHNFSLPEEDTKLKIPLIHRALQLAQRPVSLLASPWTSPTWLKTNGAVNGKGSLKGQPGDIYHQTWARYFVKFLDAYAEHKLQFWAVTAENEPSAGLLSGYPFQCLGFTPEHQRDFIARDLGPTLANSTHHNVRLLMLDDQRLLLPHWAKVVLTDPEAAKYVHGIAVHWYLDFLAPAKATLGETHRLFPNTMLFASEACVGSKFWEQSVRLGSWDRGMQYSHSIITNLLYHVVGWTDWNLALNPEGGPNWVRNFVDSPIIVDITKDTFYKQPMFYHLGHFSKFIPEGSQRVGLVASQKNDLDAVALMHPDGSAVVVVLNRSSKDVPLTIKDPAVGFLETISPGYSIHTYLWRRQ
Method: as §3, §4

[4] = tested on: endogenous levels of sphingomyelin; assay: Endogenous sphingomyelin levels in cells; assay type: cell-based
Description: as §4

neutral sphingomyelinase = assay: Neutral sphingomyelinase activity in vitro; assay type: biochemical
Description: as §4

[5] = tested on: endogenous ceramide levels in HL-60 cells; assay: cells; details: Homo sapiens, HL-60, 24 h, read-out: endogenous ceramide level relative to baseline
Method: Ceramide and diacylglycerol levels were measured on total liquid extracts using the diacylglycerol kinase assay (Jayadev et al, J. Biol. Chem. 270:2047 (1995)).
Therefore, HL-60 cells were treated with 5 μM D-e-MAPP, ethanol vehicle or L-e-MAPP for 0-24 h. At the indicated time points (FIG. 4A), total lipids were extracted and endogenous ceramide levels were measured by the Escherichia coli diacylglycerol kinase assay.
The upper spot of ceramide phosphate co-migrated with synthetic D-erythro-C18 dihydroceramide phosphate whereas the lower spot co-migrated with D-erythro-C18 ceramide phosphate.

[6] = Cellular metabolism of tritium-labeled compounds (TLC); assay type: cell-based, human; details: human, hl-60 cells; HL-60, 5 μM, by 24 h; read-out: fraction of compound taken up that was metabolized
Method: as §1, §2

metabolised at 24 h, 5 µM [6] [%] | SMILES | effect on cell growth, exposure for only 15 min ([1]; HL-60, 5 μM, back-extracted with 5 washes after 15 min) | effect on cell growth, continuous exposure ([1]; HL-60, 5 μM, compared to vehicle-treated cells) | effect on cell growth [1] | activation of CAPP in vitro [2] | metabolism in cells (HL-60 cells) | Glucosylceramide synthase activity [3] [nmol/h/mg protein] | inhibition of cerebroside synthase activity [3] | effect on activity of β-glucosidase (β-glucosidase) | effect on endogenous levels of sphingomyelin [4] | effect on activity of neutral sphingomyelinase (neutral sphingomyelinase) | fold induction at 5 µM [5]
– | CCCCCCCCCCCCCC(=O)N[C@H](C)[C@@H](O)c1ccccc1 [D-e-MAPP, D-erythro-2-(N-myristolyamino)-1-phenyl-1-propanol] | did not affect cell growth | dramatic growth inhibition | time dependent suppression of growth | neither D-e-MAPP nor L-e-MAPP activated CAPP | showed little metabolism and remained intact | 0.946 ± 0.0265 | Neither D- nor L-e-MAPP caused inhibiton of cerebroside synthase activity | did not activate or modulate | neither D- nor L-e-MAPP modulated the endogenous levels of sphingomyelin | neither D- nor L-e-MAPP modulated the activity of neutral or acidic sphingomyelinases | ~3
> 70 | CCCCCCCCCCCCCC(=O)N[C@@H](C)[C@H](O)c1ccccc1 [L-e-MAPP, L-erythro-2-(N-myristolyamino)-1-phenyl-1-propanol] | – | – | largely inactive | neither D-e-MAPP nor L-e-MAPP activated CAPP | – | 1.009 ± 0.0383 | Neither D- nor L-e-MAPP caused inhibiton of cerebroside synthase activity | did not activate or modulate | neither D- nor L-e-MAPP modulated the endogenous levels of sphingomyelin | neither D- nor L-e-MAPP modulated the activity of neutral or acidic sphingomyelinases | –
